Assay results: patent publication US12145947B2, “Pyrimidine based modulators and uses thereof” (Quanta Therapeutics, Inc., priority 2022, dated 2024)

How the values were obtained:
[1] = biological target: T1, GST-tagged KRAS-G12D (2-169) (Homo sapiens, UniProt P01116, G12D); assay: Nucleotide exchange assay (NEA), SOS-mediated, HTRF, KRAS G12D; type: biochemical; details: IC50 extracted at 30 min
T1 construct: GST-tagged KRAS-G12D (2-169, Reaction Biology, MSC-11-539); purchased Reaction Biology MSC-11-539 (KRAS G12D); MSC-11-502 (SOS1cat)
T1 sequence (P01116 2-169 isoform P01116-2 G12D): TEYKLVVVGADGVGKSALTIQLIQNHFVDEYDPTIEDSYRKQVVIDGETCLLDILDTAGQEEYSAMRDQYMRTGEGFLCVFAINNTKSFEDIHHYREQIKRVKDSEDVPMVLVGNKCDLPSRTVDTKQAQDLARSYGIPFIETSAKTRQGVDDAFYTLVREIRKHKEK
Text: This activity is tightly regulated by GTPase activating proteins (GAPs) and guanine nucleotide exchange factors (GEFs). GEFs, such as SOS1/2, activate Ras proteins by exchanging GDP for GTP, thus returning Ras to its active conformation (Simanshu, Nissley, & McCormick, 2017). […] Homogenous time resolved fluorescence (HTRF) was used to detect SOS-mediated binding of a fluorescent GTP analog, GTP-DY-647P1 (Jena Biosciences NU-820-647P1) to GST-tagged KRAS-G12D (2-169, Reaction Biology, MSC-11-539) or to GST-tagged KRAS-G12V (2-169, Reaction Biology, MSC-11-540).
GST-tagged KRAS-G12D (2-169) and anti-GST MAb Tb Cryptate Gold (CisBio 61GSTTLB) were diluted into assay buffer (20 mM HEPES, pH 7.3, 150 mM NaCl, 5 mM MgCl2, 0.05% BSA 0.0025% NP40, 1 mM DTT) to prepare a 2.5× donor solution. 5× compound was added to the protein mixture and incubated for 1 h at RT. 2.5× acceptor solution containing SOSIcat (564-1049, Reaction Biology MSC-11-502) and GTP-DY-647P1 were then added to the donor KRAS mixture such that the final concentration of the reaction contained 5 nM GST-tagged KRAS-G12D (2-169), 20 nM SOScat, and 150 nM GTP. The reaction was monitored using at RT with the Envision multimode plate reader (Ex/Em 337/665, […]) up to 90 minutes at 5 minute intervals. To monitor KRAS-G12V Sos-mediated nucleotide exchange, 80 nM SOS was added to reaction instead of 20 nM. All other components were the same as previously described. Data was blanked to reactions without SOS1 and % inhibition was calculated such that DMSO only=0% and blank=100%. Curve fitting was done using a 4 parameter fit. Reported IC50 values were extracted at 30 min and 90 min for the KRAS-G12D and KRAS-G12V assays, respectively.
Curve fitting was done using a 4 parameter fit. NEA KRAS G12D IC50 (uM) values of selected compounds are depicted in Table 2 with compounds having a value <0.01 uM as ++++; >0.01 uM to 0.1 uM as +++; >0.1 uM to 1 uM as ++; >1 uM to 20 uM as +; and >20 uM as NA.

KRAS G12D/RAF1 = biological target: T2, KRAS G12D/RAF1 (Homo sapiens, UniProt P01116, G12D); assay: Protein-protein interaction (PPI) HTRF assay KRAS G12D/RAF1; type: binding
T2 construct: His6-MBP (N, cleaved yes); made in house; host or cells: E. coli
T2 sequence (P01116 with tags, fused parts or gaps isoform P01116-2 G12D): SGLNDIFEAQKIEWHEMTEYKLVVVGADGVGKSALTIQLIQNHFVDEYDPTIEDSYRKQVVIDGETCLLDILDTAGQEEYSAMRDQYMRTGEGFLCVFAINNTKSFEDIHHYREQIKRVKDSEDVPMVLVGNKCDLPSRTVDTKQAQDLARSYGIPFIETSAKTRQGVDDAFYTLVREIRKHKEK
Method: Biotinylated KRAS wt and KRAS G12DNV proteins were expressed and purified in conditions similar to those previously reported (Tran, et al., 2021) (Zhang, et al., 2020). Briefly, KRAS (1-169) proteins were expressed in E. coli at 18° C. with an upstream TEV cleavage site (ENLFYQS (SEQ ID NO: 6)) followed an Avi tag sequence ([…] (SEQ ID NO: 7)). KRAS expression constructs contained both a His6 (SEQ ID NO: 8) and maltose-binding protein (MBP) tags at the N-terminus for Ni-NTA column purification prior to overnight TEV cleavage and MBP column purification. The avi-tagged NRAS expression construct contained both a His6 tag (SEQ ID NO: 8) and SUMO cleavage sige at the N-terminus for Ni-NTA column purification followed by His-ULPi digestion overnight. All avi-tagged RAS proteins were dialyzed into buffer containing ATP, biotin, and BirA followed by purification over a second Ni-NTA column and then run over a size exclusion HiLoad™ 26/600 Superdex™ column in 20 mM HEPES, pH 7.5, 300 mM NaCl, 5 mM MgCl2, and 1 mM TCEP. Fractions containing the protein of interest were pooled, concentrated, and confirmed by intact mass spectrometry. To prepare ‘GTP’ loaded KRAS and NRAS, biotinylated KRAS or NRAS was nucleotide exchanged from GDP-bound protein to GppNHp-bound (Jena Biosciences, NU-401-50) protein in the presence of alkaline phosphatase and excess GppNHp as previously described and the resulting nucleotide content was confirmed by HPLC reverse phase analytical chromatography (Donohue, et al., 2019) (Tran, et al., 2021).
His-tagged RAF1 (52-131) was similarly expressed in E. coli at 18° C. overnight with an upstream TEV cleavage site. His-tagged RAF1 expression construct contained both a His6 (SEQ ID NO: 8) and MBP tags at the N-terminus for Ni-NTA column purification followed by MBP-tagged TEV digestion overnight. RAF1 protein samples were further purified over a MBP column followed by a Ni-NTA column and a second MBP column. The fractions containing the protein of interest were pooled, concentrated, and further purified over a HiLoad™ 16/600 Superdex™ 75 pg size exclusion column into 20 mM HEPES, pH8.0, 200 mM NaCl, 5 mM TCEP.
When RAS proteins are in the active GTP-bound conformation, they bind the effector protein RAF1 at the N-terminus Ras-binding domain (RBD, residues 52-131) (Tran, et al., 2021). Homogenous time resolved fluorescence (HTRF) was used to monitor the interaction between wt or mutant KRAS and RAF1 or wt NRAS and RAFT. Compounds were assayed in the presence of KRAS G12D/V and RAF1 versus wt KRAS to assess activity against mutant and w.t. KRAS. Similarly, compounds were then assayed in the presence of w.t. NRAS and RAF1 to assess RAS isoform selectivity. In all assay formats, His-tagged RAF1 protein was incubated with the HTRF donor, anti-6His (“6His” disclosed as SEQ ID NO: 8) Tb Cryptate gold (Cisbio 61DB10RDF), and biotinylated RAS proteins were incubated with the HTRF acceptor, streptavidin-d2 (CisBio 610SADLA). The intensity of the fluorescence signal emitted is proportional to binding between the two proteins. The donor solution was prepared by mixing 16 nM His-tagged RAF1 in protein dilution buffer with 1:100 anti-6His (“6His” disclosed as SEQ ID NO: 8) Tb cryptate in PPI-Terbium detection buffer. 16 nM biotinylated RAS protein was diluted into protein dilution buffer (50 mM Tris-HCl pH 7.5, 150 mM NaCl, 0.1 mM MgCl2, 1 mM TCEP, 0.005% Tween20) and mixed with 1:2000 Streptavidin-d2 diluted in PPI-Terbium detection buffer (CisBio 61DBTORDF). 50× compound in DMSO was mixed with 16 nM KRAS-acceptor solution and incubated for 30 minutes at room temperature. After compound pre-incubation with KRAS, the RAF1 donor solution was added to the KRAS-acceptor solution and incubated for 1 hour at room temperature. The fluorescence signal emitted was monitored at 665 nm and 615 nm using an Envision multimode plate reader. […]

SMILES | IC50 ([1]; Table 2) | IC50 ([1]; Table 4) | IC50 (KRAS G12D/RAF1; Table 2) | IC50 (KRAS G12D/RAF1; Table 4)
Oc1ccc2c(c1)-c1ccccc1C21CN(c2cc(N3C[C@H]4CC[C@@H](C3)N4)nc(OC[C@@]34CCCN3C[C@H](F)C4)n2)C1 [Compound 1, 1-[6-[(1R,5S)-3,8-diazabicyclo[3.2.1]octan-3-yl]-2-[[(2R,8S)-2-fluoro-1,2,3,5,6,7-hexahydropyrrolizin-8-yl]methoxy]pyrimidin-4-yl]spiro[azetidine-3,9′-fluorene]-3′-ol] | 100 to 1000 nM | 100 to 1000 nM | 10000 to 100000 nM | 10000 to 100000 nM
C[C@@]1(O)CCCN(c2nc(OC[C@@]34CCCN3C[C@H](F)C4)nc(N3CC4(CCc5sc(N)c(C#N)c54)C3)c2F)C1 [Compound 6, 2-amino-1′-[5-fluoro-2-[[(2R,8S)-2-fluoro-1,2,3,5,6,7-hexahydropyrrolizin-8-yl]methoxy]-6-[(3R)-3-hydroxy-3-methyl-1-piperidyl]pyrimidin-4-yl]spiro[5,6-dihydrocyclopenta[b]thiophene-4,3′-azetidine]-3-carbonitrile] |  | 100 to 1000 nM |  | 10000 to 100000 nM
CO/N=C(\C)c1nn2c(c1Cl)CN(c1nc(OC[C@@]34CCCN3C[C@H](F)C4)nc(N3CC4(CCc5sc(N)c(C#N)c54)C3)c1C#N)CCC2 [Compound 20, 2-amino-1′-[6-[3-chloro-2-[(E)-N-methoxy-C-methyl-carbonimidoyl]-4,6,7,8-tetrahydropyrazolo[1,5-a][1,4]diazepin-5-yl]-5-cyano-2-[[(2R,8S)-2-fluoro-1,2,3,5,6,7-hexahydropyrrolizin-8-yl]methoxy]pyrimidin-4-yl]spiro[5,6-dihydrocyclopenta[b]thiophene-4,3′-azetidine]-3-carbonitrile] |  | < 10 nM |  | 1000 to 10000 nM
N#Cc1c(N2C[C@H]3CC[C@@H](C2)N3)nc(OCC2(CN3CCC(F)CC3)CC2)nc1N1CC2(CCc3sc(N)c(C#N)c32)C1 [Compound 28, 2-amino-1′-[5-cyano-6-(3,8-diazabicyclo[3.2.1]octan-3-yl)-2-[[1-[(4-fluoro-1-piperidyl)methyl]cyclopropyl]methoxy]pyrimidin-4-yl]spiro[5,6-dihydrocyclopenta[b]thiophene-4,3′-azetidine]-3-carbonitrile] |  | 10 to 100 nM |  | 100 to 1000 nM
N#Cc1c(N2CCC=CCC2)nc(OC[C@@]23CCCN2C[C@H](F)C3)nc1N1CC2(CCc3sc(N)c(C#N)c32)C1 [Compound 31, 2-amino-1′-[5-cyano-2-[[(2R,8S)-2-fluoro-1,2,3,5,6,7-hexahydropyrrolizin-8-yl]methoxy]-6-(2,3,6,7-tetrahydroazepin-1-yl)pyrimidin-4-yl]spiro[5,6-dihydrocyclopenta[b]thiophene-4,3′-azetidine]-3-carbonitrile] |  | 10 to 100 nM |  | 1000 to 10000 nM
CN(C)C(=O)c1nn2c(c1Cl)CN(c1nc(OC[C@@]34CCCN3C[C@H](F)C4)nc(N3CC4(C3)c3ccccc3CCC4(F)F)c1C#N)CCC2 [Compound 35, 3-chloro-5-[5-cyano-6-(2′,2′-difluorospiro[azetidine-3,1′-tetralin]-1-yl)-2-[[(2R,8S)-2-fluoro-1,2,3,5,6,7-hexahydropyrrolizin-8-yl]methoxy]pyrimidin-4-yl]-N,N-dimethyl-4,6,7,8-tetrahydropyrazolo[1,5-a][1,4]diazepine-2-carboxamide] |  | 1000 to 20000 nM |  | > 100000 nM
CN(C)C(=O)c1nn2c(c1Cl)CN(c1nc(OC[C@@]34CCCN3C[C@H](F)C4)nc(N3CC4(C3)C(=O)CCc3ccccc34)c1C#N)CCC2 [Compound 36, 3-chloro-5-[5-cyano-2-[[(2R,8S)-2-fluoro-1,2,3,5,6,7-hexahydropyrrolizin-8-yl]methoxy]-6-(2′-oxospiro[azetidine-3,1′-tetralin]-1-yl)pyrimidin-4-yl]-N,N-dimethyl-4,6,7,8-tetrahydropyrazolo[1,5-a][1,4]diazepine-2-carboxamide] |  | 1000 to 20000 nM |  | > 100000 nM
N#Cc1c(N2C[C@H]3CC[C@@H](C2)N3)nc(OCc2n[nH]cc2C(F)F)nc1N1CC2(CCc3sc(N)c(C#N)c32)C1 [Compound 109, 2-amino-1′-[5-cyano-6-[(1R,5S)-3,8-diazabicyclo[3.2.1]octan-3-yl]-2-[[4-(difluoromethyl)-1H-pyrazol-3-yl]methoxy]pyrimidin-4-yl]spiro[5,6-dihydrocyclopenta[b]thiophene-4,3′-azetidine]-3-carbonitrile] |  | 10 to 100 nM |  | 
N#Cc1c(N2CCCOCC2)nc(OC[C@@]23CCCN2C[C@H](F)C3)nc1N1CC2(CCc3sc(N)c(C#N)c32)C1 [Compound 110, 2-amino-1′-[5-cyano-2-[[(2R,8S)-2-fluoro-1,2,3,5,6,7-hexahydropyrrolizin-8-yl]methoxy]-6-(1,4-oxazepan-4-yl)pyrimidin-4-yl]spiro[5,6-dihydrocyclopenta[b]thiophene-4,3′-azetidine]-3-carbonitrile] |  | 10 to 100 nM |  | 
N#Cc1c(N2CCSc3ncccc3C2)nc(OC[C@@]23CCCN2C[C@H](F)C3)nc1N1CC2(CCc3sc(N)c(C#N)c32)C1 [Compound 111, 2-amino-1′-[5-cyano-6-(3,5-dihydro-2H-pyrido[3,2-f][1,4]thiazepin-4-yl)-2-[[(2R,8S)-2-fluoro-1,2,3,5,6,7-hexahydropyrrolizin-8-yl]methoxy]pyrimidin-4-yl]spiro[5,6-dihydrocyclopenta[b]thiophene-4,3′-azetidine]-3-carbonitrile] |  | 10 to 100 nM |  | 
